Here are results for 3 compounds from patent US6344211B1, “Transdermal absorption of active substances from subcooled melts” (LTS Lohmann Therapie-Systeme GmbH, priority 1994, dated 2002).

Read-outs that look alike come from different tables or passages of the source. Marks after values point to notes of the source that are not given here.

For data set [1] the following is noted: cited from earlier work.
Data set [2] can be described thus: dissociation constant (pKa) of the acids used. Format: physicochemical. Particulars: determined by experiment. On the procedure:
Column 1 indicates the number of the experiment, column 2 the concentration of buprenorphine base, column 3 the quality and quantity of the acid used, column 4 the dissociation constant of the acids used, column 5 the plasticizer, column 6 the polymers used, and column 7 the absorption rate under in-vitro-conditions. The relative amount of buprenorphine base diffusing through mice skin within 24 h, relative to the amount per TTS, is given. The penetration results were obtained using mice skin clamped in a Franz-Cell.
It is seen from column 4 that the dissociation constants of the carboxylic acids used are quite similar. However, if the plasticizer, oleyl oleate, is used in a 10%-concentration each time, it can be seen from Examples 1 and 3 or 2 and 4 that only the carboxylic acids having a tendency to form subcooled melts cause a marked penetration increase under in-vitro conditions. […] This was compensated by a higher concentration of the two weaker acids, amounting to 15%, as compared to the concentration of the two stronger acids. However, it can also be seen that the dissociation constants are so similar that the absorption-promoting effect cannot be explained by the dissociation constants.

With `O=C(O)CCCC(=O)O` [glutaric acid], the pKa value in data set [1] (pKa I of glutaric acid, given for the glutaric acid monomethyl ester line) is recorded as 4.33*.
On to `CC(=O)CCC(=O)O` [levulic acid], for which, in data set [2], the pKa value is listed as 4.4**.
Regarding `C=CCCCCCCCCC(=O)O` [undecenoic acid], the pKa value in data set [1] (dissociation constant of the acid used in the TTS) is given as 4.5.
